Experimental findings from article PMC5268438, “Crystal Structure and Functional Characterization of an Esterase (EaEST) from Exiguobacterium antarcticum” (PLoS ONE, 2017) are described below.

The target in one assay is T1, EaEST (Exiguobacterium antarcticum, UniProt A0ABF7PFX0).
T1 construct: gene Eab7_1456; recombinant from pET-21a in E. coli BL21(DE3), purified on His-Trap Ni-NTA, no tag removal told; two protomers in the asymmetric unit (542 residues modelled); catalytic triad Ser96, Asp220, His248
T1 sequence (A0ABF7PFX0 1-272): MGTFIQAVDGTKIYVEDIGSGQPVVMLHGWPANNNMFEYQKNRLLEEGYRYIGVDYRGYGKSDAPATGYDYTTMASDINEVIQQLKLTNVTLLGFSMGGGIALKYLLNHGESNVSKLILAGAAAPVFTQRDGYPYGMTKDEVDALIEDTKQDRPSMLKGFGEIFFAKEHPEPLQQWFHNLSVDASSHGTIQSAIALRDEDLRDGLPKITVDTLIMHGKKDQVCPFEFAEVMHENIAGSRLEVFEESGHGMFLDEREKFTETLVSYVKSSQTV
Briefly: X-ray crystal structure, […] Å. The format is binding. The conditions noted are these: crystals from 0.2 M ammonium acetate, pH 7.5, no ligand added; active site, ligand assigned from electron density.

Assay [1] addresses esterase (EaEST) from Exiguobacterium antarcticum B7 (Exiguobacterium antarcticum B7). Briefly: AUC; sedimentation velocity, 20°C, 2 mg/ml EaEST in 25 mM Tris-HCl pH 8.0, 200 mM NaCl, 5 mM MgCl2, 2 mM DTT; 45,000 rpm; c(s) with SEDFIT.

One may read the stoichiometry N as a count of units in the complex or per binding partner.

Turning to `CC(=O)OO` [peracetate], on EaEST, the “X-ray crystal structure, 1.90 Å” value was “the peracetate molecule was perfectly fitted into the electron-density map”. “esterase (EaEST) from Exiguobacterium antarcticum B7 (enzyme)” returned a stoichiometry N in assay [1] of 3.
